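Each compound was tested at five concentrations against cells in 96-well plates for 48 hours. The concentration for 50% growth inhibition is given as GI50.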 Calls of active or inactive are those of the source. No stated cut-off is given here; in the data, active = GI50 up to about 1.1 µM and inactive = higher.
What was measured:
Test in all cases: NCI-60 cell line screen, 48 h
DU-145 = system: DU-145
CCRF-CEM = system: CCRF-CEM
RXF 393 = system: RXF 393
OVCAR-5 = system: OVCAR-5
SK-MEL-2 = system: SK-MEL-2
NCI-H460 = system: NCI-H460
SF-268 = system: SF-268
EKVX = system: EKVX
PC-3 = system: PC-3
OVCAR-4 = system: OVCAR-4
UACC-257 = system: UACC-257
HOP-92 = system: HOP-92
BT-549 = system: BT-549
SR = system: SR
T47D = system: T47D
K562 = system: K562
SF-295 = system: SF-295
786-0 = system: 786-0
HCT-15 = system: HCT-15
CAKI-1 = system: CAKI-1
SF-539 = system: SF-539
U-251 = system: U-251
NCI-H522 = system: NCI-H522
SW-620 = system: SW-620
A498 = system: A498
NCI-H23 = system: NCI-H23
RPMI-8226 = system: RPMI-8226
SNB-75 = system: SNB-75
HCT-116 = system: HCT-116
Malme-3M = system: Malme-3M
ACHN = system: ACHN
HOP-62 = system: HOP-62
HCC 2998 = system: HCC 2998
SK-MEL-5 = system: SK-MEL-5
M14 = system: M14
Hs-578T = system: Hs-578T
COLO 205 = system: COLO 205
MDA-MB-231 = system: MDA-MB-231
UACC-62 = system: UACC-62
NCI-H226 = system: NCI-H226
SNB-19 = system: SNB-19
MDA-MB-435 = system: MDA-MB-435
KM12 = system: KM12
TK-10 = system: TK-10
OVCAR-3 = system: OVCAR-3
SK-MEL-28 = system: SK-MEL-28
SN12C = system: SN12C
IGROV-1 = system: IGROV-1
MDA-N = system: MDA-N
MOLT-4 = system: MOLT-4
NCI/ADR-RES = system: NCI/ADR-RES
SK-OV-3 = system: SK-OV-3
A549 = system: A549
MCF7 = system: MCF7
UO-31 = system: UO-31
LOX IMVI = system: LOX IMVI
HT-29 = system: HT-29
HL-60 = system: HL-60
OVCAR-8 = system: OVCAR-8

O=c1c2cc(Cl)cc(Cl)c2oc2nc3n(c(=O)c12)CCCS3
GI50 (DU-145): > 100 µM (inactive) | GI50 (CCRF-CEM): 92.5 µM (inactive) | GI50 (RXF 393): > 100 µM (inactive) | GI50 (OVCAR-5): > 100 µM (inactive) | GI50 (SK-MEL-2): > 100 µM (inactive) | GI50 (NCI-H460): > 100 µM (inactive) | GI50 (SF-268): > 100 µM (inactive) | GI50 (EKVX): > 100 µM (inactive) | GI50 (PC-3): > 100 µM (inactive) | GI50 (OVCAR-4): > 100 µM (inactive) | GI50 (UACC-257): > 100 µM (inactive) | GI50 (HOP-92): > 100 µM (inactive) | GI50 (BT-549): 47.6 µM (inactive) | GI50 (SR): > 100 µM (inactive) | GI50 (T47D): 57.1 µM (inactive) | GI50 (K562): 76 µM (inactive) | GI50 (SF-295): > 100 µM (inactive) | GI50 (786-0): > 100 µM (inactive) | GI50 (HCT-15): > 100 µM | GI50 (CAKI-1): > 100 µM (inactive) | GI50 (SF-539): > 100 µM (inactive) | GI50 (U-251): > 100 µM (inactive) | GI50 (NCI-H522): 16.7 µM (inactive) | GI50 (SW-620): > 100 µM (inactive) | GI50 (A498): > 100 µM (inactive) | GI50 (NCI-H23): > 100 µM (inactive) | GI50 (RPMI-8226): > 100 µM (inactive) | GI50 (SNB-75): > 100 µM (inactive) | GI50 (HCT-116): > 100 µM (inactive) | GI50 (Malme-3M): > 100 µM (inactive) | GI50 (ACHN): > 100 µM (inactive) | GI50 (HOP-62): > 100 µM (inactive) | GI50 (HCC 2998): > 100 µM (inactive) | GI50 (SK-MEL-5): > 100 µM (inactive) | GI50 (M14): > 100 µM (inactive) | GI50 (Hs-578T): > 100 µM (inactive) | GI50 (COLO 205): > 100 µM (inactive) | GI50 (MDA-MB-231): > 100 µM (inactive) | GI50 (UACC-62): > 100 µM (inactive) | GI50 (NCI-H226): > 100 µM (inactive) | GI50 (SNB-19): > 100 µM (inactive) | GI50 (MDA-MB-435): > 100 µM (inactive) | GI50 (KM12): > 100 µM (inactive) | GI50 (TK-10): > 100 µM (inactive) | GI50 (OVCAR-3): 95.9 µM (inactive) | GI50 (SK-MEL-28): > 100 µM (inactive) | GI50 (SN12C): > 100 µM (inactive) | GI50 (IGROV-1): > 100 µM (inactive) | GI50 (MDA-N): > 100 µM (inactive) | GI50 (MOLT-4): 57.8 µM (inactive) | GI50 (NCI/ADR-RES): > 100 µM (inactive) | GI50 (SK-OV-3): > 100 µM (inactive) | GI50 (A549): > 100 µM (inactive) | GI50 (MCF7): 70.5 µM (inactive) | GI50 (UO-31): 18.8 µM (inactive)

CN(C)CCNC(=O)c1ccc(NC(=O)c2nc([N+](=O)[O-])cn2C)cc1
GI50 (DU-145): > 100 µM (inactive) | GI50 (CCRF-CEM): > 100 µM (inactive) | GI50 (RXF 393): > 100 µM (inactive) | GI50 (OVCAR-5): > 100 µM (inactive) | GI50 (SK-MEL-2): > 100 µM (inactive) | GI50 (NCI-H460): > 100 µM (inactive) | GI50 (SF-268): > 100 µM (inactive) | GI50 (PC-3): > 100 µM (inactive) | GI50 (OVCAR-4): > 100 µM (inactive) | GI50 (UACC-257): > 100 µM (inactive) | GI50 (HOP-92): > 100 µM (inactive) | GI50 (BT-549): > 100 µM (inactive) | GI50 (SR): > 100 µM (inactive) | GI50 (T47D): > 100 µM (inactive) | GI50 (K562): > 100 µM (inactive) | GI50 (SF-295): > 100 µM (inactive) | GI50 (786-0): > 100 µM (inactive) | GI50 (HCT-15): > 100 µM | GI50 (CAKI-1): > 100 µM (inactive) | GI50 (SF-539): > 100 µM (inactive) | GI50 (U-251): > 100 µM (inactive) | GI50 (NCI-H522): > 100 µM (inactive) | GI50 (SW-620): > 100 µM (inactive) | GI50 (A498): > 100 µM (inactive) | GI50 (NCI-H23): > 100 µM (inactive) | GI50 (RPMI-8226): > 100 µM (inactive) | GI50 (SNB-75): > 100 µM (inactive) | GI50 (HCT-116): > 100 µM (inactive) | GI50 (Malme-3M): > 100 µM (inactive) | GI50 (ACHN): > 100 µM (inactive) | GI50 (HOP-62): > 100 µM (inactive) | GI50 (SK-MEL-5): > 100 µM (inactive) | GI50 (M14): > 100 µM (inactive) | GI50 (Hs-578T): > 100 µM (inactive) | GI50 (COLO 205): > 100 µM (inactive) | GI50 (LOX IMVI): > 100 µM (inactive) | GI50 (MDA-MB-231): > 100 µM (inactive) | GI50 (UACC-62): > 100 µM (inactive) | GI50 (NCI-H226): > 100 µM (inactive) | GI50 (MDA-MB-435): > 100 µM (inactive) | GI50 (KM12): > 100 µM (inactive) | GI50 (TK-10): > 100 µM (inactive) | GI50 (HT-29): > 100 µM (inactive) | GI50 (OVCAR-3): > 100 µM (inactive) | GI50 (SK-MEL-28): > 100 µM (inactive) | GI50 (HL-60): > 100 µM (inactive) | GI50 (SN12C): > 100 µM (inactive) | GI50 (IGROV-1): > 100 µM (inactive) | GI50 (MDA-N): > 100 µM (inactive) | GI50 (MOLT-4): > 100 µM (inactive) | GI50 (NCI/ADR-RES): > 100 µM (inactive) | GI50 (SK-OV-3): > 100 µM (inactive) | GI50 (A549): > 100 µM (inactive) | GI50 (OVCAR-8): > 100 µM (inactive) | GI50 (MCF7): > 100 µM (inactive) | GI50 (UO-31): > 100 µM (inactive)

OC(Cc1ccc2ccccc2n1)(C(F)(F)Cl)C(F)(F)Cl
GI50 (DU-145): > 10 µM (inactive) | GI50 (CCRF-CEM): > 10 µM (inactive) | GI50 (OVCAR-5): > 10 µM (inactive) | GI50 (NCI-H460): > 10 µM (inactive) | GI50 (SF-268): > 10 µM (inactive) | GI50 (EKVX): > 10 µM (inactive) | GI50 (PC-3): > 10 µM (inactive) | GI50 (OVCAR-4): > 10 µM (inactive) | GI50 (UACC-257): > 10 µM (inactive) | GI50 (HOP-92): > 10 µM (inactive) | GI50 (BT-549): > 10 µM (inactive) | GI50 (SR): > 10 µM (inactive) | GI50 (T47D): > 10 µM (inactive) | GI50 (K562): > 10 µM (inactive) | GI50 (SF-295): > 10 µM (inactive) | GI50 (786-0): > 10 µM (inactive) | GI50 (HCT-15): > 10 µM | GI50 (CAKI-1): > 10 µM (inactive) | GI50 (SF-539): > 10 µM (inactive) | GI50 (U-251): > 10 µM (inactive) | GI50 (NCI-H522): > 10 µM (inactive) | GI50 (SW-620): > 10 µM (inactive) | GI50 (A498): > 10 µM (inactive) | GI50 (NCI-H23): > 10 µM (inactive) | GI50 (SNB-75): > 10 µM (inactive) | GI50 (HCT-116): > 10 µM (inactive) | GI50 (Malme-3M): > 10 µM (inactive) | GI50 (ACHN): > 10 µM (inactive) | GI50 (HOP-62): > 10 µM (inactive) | GI50 (HCC 2998): > 10 µM (inactive) | GI50 (SK-MEL-5): > 10 µM (inactive) | GI50 (M14): > 10 µM (inactive) | GI50 (Hs-578T): > 10 µM (inactive) | GI50 (COLO 205): > 10 µM (inactive) | GI50 (LOX IMVI): > 10 µM (inactive) | GI50 (MDA-MB-231): > 10 µM (inactive) | GI50 (UACC-62): > 10 µM (inactive) | GI50 (NCI-H226): > 10 µM (inactive) | GI50 (SNB-19): > 10 µM (inactive) | GI50 (MDA-MB-435): > 10 µM (inactive) | GI50 (KM12): > 10 µM (inactive) | GI50 (TK-10): > 10 µM (inactive) | GI50 (HT-29): > 10 µM (inactive) | GI50 (OVCAR-3): > 10 µM (inactive) | GI50 (SK-MEL-28): > 10 µM (inactive) | GI50 (SN12C): > 10 µM (inactive) | GI50 (IGROV-1): > 10 µM (inactive) | GI50 (MDA-N): > 10 µM (inactive) | GI50 (MOLT-4): > 10 µM (inactive) | GI50 (NCI/ADR-RES): > 10 µM (inactive) | GI50 (SK-OV-3): > 10 µM (inactive) | GI50 (A549): > 10 µM (inactive) | GI50 (OVCAR-8): > 10 µM (inactive) | GI50 (MCF7): > 10 µM (inactive) | GI50 (UO-31): > 10 µM (inactive)

— ChEMBL document CHEMBL1201862, “PubChem BioAssay data set” (2004)
